Source: patent publication US20210252023A1, “METHODS AND COMPOSITIONS FOR TREATING AND/OR PREVENTING THE PROGRESSION AND/OR ONSET OF AGE-RELATED NEURODEGENERATION” (Enterin, Inc., priority 2018, published 2021)
Entries after “also recorded” stand apart in the source; their conditions may differ.

Experiments:
[1] = Dose response of delay in growth of BDF1 mice (Example 1, FIG. 2); assay type: in vivo, B6D2F1 (BDF1) mice; details: 5 and 10 mg/kg IV; data not shown
Procedure: An experiment was conducted to explore the dose response to a delay in growth of B6D2F1 (BDF1) mice to Aminsoterol 1436. 30 day old male BDF1 mice received either vehicle or Aminosterol 1436 intraveneously (IV) at 5 mg/kg or 10 mg/kg (n=15 for each treatment arm) every 3 days until 51 days of age. The Aminosterol 1436 was administered as a aqueous solution in water. BDF1 mice are available from Charles River Laboratories. The animals were fed standard lab chow, offered ad libitum. The animals were weighed and body length measured every 5 days. […] However, while the control animals reached maturity at 120 days, the animals that received 5 mg/kg of Aminosterol 1436 reached maturity at 150 days, corresponding to a 25% delay in reaching maturity, as measured by end weight. […] Most importantly, both treated and untreated animals reached normal adult dimensions, albeit at different rates.

[2] = Brain distribution of radioactive Aminosterol 1436 after IV or ICV administration (FIG. 1); assay type: in vivo; details: radioactive compound, rat, peripheral vein (IV) or 3rd ventricle (ICV)
Excerpt: The exact mechanism by which Aminosterol 1436 achieves its effect on preventing, delaying onset, and/or treating neurodegeneration, delaying maturity, retarding aging, and increasing potential lifespan is not known. However, without being bound by theory, Applicant theorizes that the effect of Aminosterol 1436 is likely in part due to the drug's effects on the hypothalamus within the brain of the animal.

[3] = Neuroregeneration in treated adult mouse (cell number in brain areas); assay type: in vivo
Excerpt: The hypothalamus is of particular interest because it happens to be the site of localization of Aminosterol 1436 in the brain.

[4] = test system: HIV; details: tissue culture; U.S. Pat. No. 5,763,430; cited from earlier work

For `CC(C)[C@@H](CC[C@@H](C)[C@H]1CC[C@H]2[C@@H]3[C@H](O)C[C@H]4C[C@@H](NCCCNCCCCNCCCN)CC[C@]4(C)[C@H]3CC[C@]12C)OS(=O)(=O)O` [Aminosterol 1436, trodusquemine], the linear growth [1] was “slowed to a corresponding degree”, the “accumulation in the brain” value [2] was “accumulation of Aminosterol 1436 within the centers of the brain that control growth, maturation, and senescence; also recorded: accumulates within the centers of the brain that control growth, maturation and senescence” and the “neuroregeneration (number of cells in subependymal zone, olfactory bulb, hypothalamus, thalamus)” value [3] was “stimulates neuroregeneration”. For the same compound, the “antiviral activity against HIV” value [4] was “exhibits antiviral activity against HIV in tissue culture”.
